The subject of data set [1] is MOG35-55–antigen specific T-cells. Description: In-vitro T-cell proliferative response (H3-thymidine incorporation). Format: cell-based, mouse (C57Bl/6J). The settings on record: peptide at 10μM. Background: Dividing cells build labelled thymidine or BrdU into new DNA.
Data set [2] deals with MOG35-55-reactive T-cells (spleenocytes harvested at 26 DPI). Nature of the data set: Ex-vivo MOG35-55 re-stimulation of spleenocytes from EAE mice. The class given is in vivo, mouse. The settings on record: mice treated with single dose 1mg/kg. Here is the method:
Fig 3 Administration of HTLV FP alleviates MOG35-55-induced EAE. (A-B) MOG35-55–antigen specific T-cells were activated by irradiated MOG35-55 presenting APCs, in the presence of HTLV FP or HTLV Scr at 10μM. (A) The proliferative responses were assessed by H^3-thymidine incorporation assay, and normalized to the proliferation of non-activated T-cells. The data is presented as mean inhibition of proliferation. n = 12. (B) IFN-γ was measured by ELISA assay. n = 12. (C-D) EAE was induced in C57BL/6 female mice that were treated with a single dose of HTLV FP, HTLV Scr or vehicle. […] (C) Direct clinical measurement of EAE phenotype in a 5-point scale with increased disease symptoms correlating with higher score value. The data is presented as mean EAE clinical score. (D) Mice were weighed the day before EAE induction, and the change (as a percentage) in weight was recorded. The data is presented as mean change from the initial weight. One-way ANOVA was used for statistical analysis. ^a HTLV FP ≠ Vehicle; ^b HTLV FP ≠ Vehicle & HTLV Scr; ^c HTLV FP ≠ HTLV Scr. ^a,b,cP<0.05. (E) Spleenocytes were harvested at 26 DPI and stimulated using MOG35-55. The proliferative responses were assessed by H^3-thymidine incorporation assay and normalized to the proliferation of non-activated T-cells. The data is presented as counts per minute (CPM). n = 7. (F-G) Spleenocytes were harvested at 26 DPI and stimulated using MOG35-55. Media was collected 48 hours following activation and secretion of IFN-γ and IL4 was measured by ELISA assay. […] One-way ANOVA was used for statistical analysis. *P<0.05;**P<0.01;***P<0.001; ns, not significant.
We then performed an additional EAE experiment in which mice were treated with a single dose of HTLV FP (1mg/kg), HTLV Scr (1mg/kg) or vehicle. […] As disease manifestation was milder compared to the previous experiment, we were able to monitor animals for a longer period of time. […]

Data set [3] concerns mouse MOG35-55–antigen specific T cells. The settings on record: XTT, n = 4. Here is the method:
Aliquots of 10^4 cells were distributed onto a 96-well plate in the presence of 1.25–40μM of the relevant peptides for 16 or 72 hours. Following incubation, XTT reaction solution (benzene sulfonic acid hydrate and N-methyl dibenzopyrazine methyl sulfate, mixed in a proportion of 50:1), was added for 2 hours. Optical density was read at 450-nm wavelength. The percentage of toxicity was calculated relative to the control, 10^4 cells in medium with no peptide added.
Viability of cells was analyzed by an XTT cytotoxicity assay. MOG35-55–antigen specific T cells were incubated with peptides at concentrations ranging from 40μM to 2.5μM in serial dilutions (from black to light gray respectively). (A) Viability was analyzed following overnight (16 hours) incubation with peptides. (B) Viability was analyzed following 72 hour incubation with the peptide. The data is presented as mean percent viability. Error bars represent ± S.E.M. n = 4. (TIF) Click here for additional data file.

Data set [4] is described as follows: Circular dichroism spectroscopy with CDNN secondary structure analysis. The class given is physicochemical. The conditions noted are these: 25μM peptide in 5mM HEPES buffer with 1% LPC. Here is the method:
Fig 6 Detection of the immune modulatory region within the HTLV FP. (A) Sequences of shorter peptides derived from the full length HTLV FP. (B) MOG35-55–antigen specific T-cells were activated by APCs in the presence of HTLV FP derived peptides at 10μM and proliferative responses were assessed as described above. […] The data is presented as mean inhibition of proliferation. n = 12. (C) MOG35-55–antigen specific T cells were activated by either (i) irradiated MOG35-55 presenting APCs (black), (ii) antibodies against CD3 and CD28 (white), or (iii) PMA and Ionomycin (gray) in the presence of HTLV FP5-13 and HIV FP5-13 at 10μM. Proliferative responses were assessed as described above. The HTLV FP inhibits T-cell proliferation induced either through the TCR or downstream from the TCR with equal potencies. The data is presented as mean inhibition of proliferation. n = 12. […] CD spectra were measured at 25μM in 5mM HEPES buffer containing 1% lyso-phosphatidylcholine (LPC). […] (E) MOG35-55–antigen specific T-cells were activated by APCs in the presence of HTLV FP5-13 D/L enantiomers at 10μM and proliferative responses were assessed as described above. Both HTLV FP5-13 enantiomers inhibit T-cells proliferation with equal potencies. The data is presented as mean inhibition of proliferation. n = 12. One-way ANOVA was used for statistical analysis. *P<0.05;**P<0.01;***P<0.001.

The mark [5] stands for this setting: harvested at 26 DPI, media 48 hours following activation, ELISA, n>8, compared to vehicle and HTLV Scr groups.
The mark [6] stands for this setting: CD 190–260 nm, CDNN, relative amount of structure out of 100%.

“Also recorded” adds a separate entry of the source.

With “AVPVAVWLVSALAMGAGVAGGITGSMSLASGKS [HTLV FP, gp21 fusion peptide of HTLV-1, MT-2 isolate]”, the “inhibition of T-cell proliferation, activation by PMA and Ionomycin” value in data set [1] (50ng/mL PMA with 1μM ionomycin, n = 12) is reported as “inhibited T-cell proliferation induced at all three levels of activation with equal potency”. Besides, the “inhibition of T-cell proliferation, activation by antibodies against CD3 and CD28” value in data set [1] (CD3 and CD28 antibodies 2μg/ml, n = 12) is on record as “inhibited T-cell proliferation induced at all three levels of activation with equal potency”. The “inhibition of T-cell proliferation, activation by MOG35-55 presenting APCs” value in data set [1] (irradiated MOG35-55 presenting APCs, mean inhibition of proliferation, n = 12, 10 µM) was “inhibit T-cell proliferation with equal potency to that of HIV’s FP and significantly stronger than the BLV FP; also recorded: inhibited T-cell proliferation induced at all three levels of activation with equal potency; also recorded: inhibited both T-cell proliferation and IFN-γ secretion with higher potency than the HTLV Scr; also recorded: inhibit T-cell proliferation with higher potency than HTLV FP9-22 and HTLV FP14-22”. In addition, in data set [2] (setting [5]), the “IFN-γ secretion of spleenocytes stimulated with MOG35-55” value is recorded as “significantly lower IFN-γ secretion” and the “IL4 secretion of spleenocytes stimulated with MOG35-55” value was “significantly higher IL4 secretion”. Also, in data set [2] (spleens harvested at 26 DPI, H3-thymidine incorporation, CPM, n = 7), the “T-cell proliferative response of spleenocytes stimulated with MOG35-55” value is listed as “significantly lower in HTLV FP treated spleenocytes compared to HTLV Scr treated spleenocytes”. In addition, the “toxicity to mouse T-cells, 72 hours” value in data set [3] (peptide 40μM to 2.5μM, 72 hour incubation) was “not toxic up to 4-fold higher than the concentrations used in this study”. Further, the “toxicity to mouse T-cells, 16 hours” value in data set [3] (peptides 40μM to 2.5μM, overnight (16 hours) incubation) is listed as “not toxic up to 4-fold higher than the concentrations used in this study”. In data set [4] (setting [6]), the “Antiparallel β-Sheet” value came out at 2.1%, the “Parallel β-Sheet” value worked out at 3.3%, the Random-coil is listed as 13% and the α-Helix was 68.6%. In addition, the β-turn in data set [4] (setting [6]) is given as 13%. In addition, in data set [4] (CD), the “secondary structure in a membrane mimetic environment” value is “exhibited an α-helical structure”.

These data come from PMC5955599, “The HTLV-1 gp21 fusion peptide inhibits antigen specific T-cell activation in-vitro and in mice” (PLoS Pathogens, 2018).
